Source: patent EP1056460B1, “PHARMACEUTICAL PREPARATIONS FOR SELECTIVELY SUPPLEMENTING OESTROGEN DEFICIENCY IN THE CENTRAL NERVOUS SYSTEM” (priority 1998, dated 1999)

Columns and labels:
Endometriums = test: Computer-aided measurement of endometrium thickness in uterus preparations; format: in vivo, Ratten; details: ovariectomised rats, 1 µg daily s.c. for 7 days
Oxytozin-Rezeptoren = test: Density of oxytocin receptors in brain and myometrium by 125I-OVTA autoradiography after 7 days of treatment; format: in vivo, Ratten; details: 1 µg daily s.c. for 7 days
From the text: Jede Säule repräsentiert x ± SEM von 4-5 Einzelbestimmungen.

[1] = Serum concentration of 17b-Estradiol after 7 days of subcutaneous treatment (biotransformation); format: in vivo, Ratten; details: ovariectomised rats, daily s.c. for 7 days: 17a-Estradiol 100 µg, prototype 30 µg, 17b-Estradiol 1 µg; placebo below detection limit
From the text: Sternzeichen bezeichnen signifikante Differenzen im Vergleich zu den Werten, die bei Placebo-behandelten Tieren gemessen wurden; die Letzteren waren unterhalb der Nachweisgrenze der Methode; jede Behandlungsgruppe bestand aus 7 Tieren.

Uterus [2] = test: Uterus weight after 14 days of daily subcutaneous treatment (cognition experiment); format: in vivo, Wistar-Ratten; details: for Uterusgewichte (x ± SEM): after 14 days of daily s.c. treatment: 17b-Estradiol 1 µg, 17a-Estradiol 100 µg, prototype 30 µg, n = 8-10, OVX 53 ± 2
From the text: (§1) Eine Korrelation zwischen Serum-Estrogenspiegel und kognitiver Leistung wurde auch im Tierversuchsmodell nachgewiesen (Kondo Y, Suzuki K, Sakuma Y, Estrogen aleviates cognitive dysfunction following transient brain ischemia in ovariectomized gerbils, Neurosci Lett 238: 45-48, 1997). […] Die gesamte Behandlungsdauer war 14 Tage. Am 5. und 6. Behandlungstag wurden Trainingssitzungen zum Erlernen eines konditionierten Escape-Verhaltens nach einer etablierten Methode (Diaz-Veliz G et al., Influence of the estrous cycle, ovariectomy and estradiol replacement upon the acquisition of conditioned avoidance responses in rats, Physiol Behav 46: 397-401, 1989) durchgeführt. Jedes Tier wurde in einer Sitzung 50 Mal der Kombination aus einem unbedingten (elektrische Reizung) und zwei konditionierenden Stimuli (Licht- und Schall-Signal) exponiert. Am 7. Behandlungstag wurde die Retention des erlernten Verhaltensmusters getestet. Nach einer 6-tägigen Unterbrechung der Lernsitzungen, wurde am 14. Behandlungstag die Extinktion des erlernten konditionierten Verhaltens ermittelt. Die Anzahl der korrekten Verhaltensreaktionen (Escape in das "sichere" Abteil des Apparats innerhalb von drei Sekunden nach Präsentation der konditionierenden Signale) aus 50 aufeinanderfolgenden Expositionen wurde als Kriterium für die Bewertung der Retention bzw. Extinktion des erlernten Verhaltens verwendet.

bcl-2 = bcl-2 transcripts in the dentate gyrus of the hippocampus by in-situ hybridisation after chronic treatment in vivo; design: species or system Wistar-Ratten; details: ovariectomised rats, 0,01, 0,1 and 1 µg daily s.c. for 7 days; effect of the prototype identical to equal doses of 17b-Estradiol
From the text: Das Untersuchungsmaterial stammte von Tieren, die im unter Beispiel 3 beschriebenen Experiment behandelt wurden. […] Bcl-2-Transkripte wurden in Hirnschnitten durch in-situ-Hybridisierung mit einer spezifischen Oligonukleotid-Sonde (Clark RSB et al., Apoptosis-suppressor gene bcl-2 expression after traumatic brain injury in rats, J Neurosci 17: 9172-9182, 1997) dargestellt, und nach der im Beispiel 3 beschriebenen Methode densitometrisch quantifiziert.

Uterus [3] = test: Uterus wet weight after chronic subcutaneous application (osmotic minipumps, 7 days) in ovariectomised rats; format: in vivo, Wistar-Ratten
From the text: Geschlechtsreife (drei Monate alt, Gewicht 250±30 g) weibliche Wistar-Ratten (Tierzucht Schönwalde GmbH, Deutschland) wurden unter Ketamin-Narkose ovarektomiert. […] Am 7. Behandlungstag wurden die Tiere getötet und die Uterus-Feuchtgewichte (bezogen auf 100 g Körpergewicht) ermittelt.
Geschlechtsreife (drei Monate alt, Gewicht 250±30 g) weibliche Wistar-Ratten (Tierzucht Schönwalde GmbH, Deutschland) wurden unter Ketamin-Narkose ovarektomiert. […] Unmittelbar nach der Tötung der Tiere, wurden die Uterus-Feuchtgewichte (bezogen auf 100 g Körpergewicht) ermittelt. Die Messenger-Ribonukleinsäure (mRNA), die die Biosynthese von Oxytozin codiert, wurde durch in-situ-Hybridisierung mit einer spezifischen radioaktiv-markierten Oligodeoxynukleotid-Sonde nach einer etablierten Methode (Fischer D et al, Lactation as a model of naturally reversible hypercorticalism: plasticity in the mechanism governing hypothalamo-pituitary-adrenal activity in the rat, J Clin Invest 96: 1208-1215, 1995), 1995) im hypothalamischen Nucleus paraventricularis (PVN) dargestellt. Behandlungsbedingte Veränderungen in der Transkription des Oxytocin-Gens wurden durch densitometrische Messungen der spezifischen Hybridisierungssignale innerhalb der definierten anatomischen Stukturen quantifiziert.
(§2) Jeder Punkt stellt x ± SEM von 5-7 Einzelbestimmungen.

[4] = system: Alpha-Isoform des Estrogenrezeptors (ERa); test: Activation of transcription of an ERa-dependent luciferase reporter gene in MCF-7/2A cells; format: cell-based; details: EREwtcLUC reporter, 10^-11 to 10^-8 M, 48 h, fold lower than 17b-Estradiol
From the text: Brustkrebszellen MCF-7/2A, die die Alpha-Isoform des Estrogenrezeptors (ERa) exprimieren, wurden mit dem Reporter-Plasmid EREwtcLUC stabil transfiziert. Der Reporter enthält den Estrogen-Response Element (ERE) von Vitellogenin, einen Thymidinkinase-Promotor und das Luciferase-codierende Gen von Photinus pyralis. […] Die Zellen wurden lysiert und die Transkription des Luciferase-Reportergens wurde durch Bestimmung der Luciferase-Aktivität mit einem spezifischen Testansatz (Serva/Promega, Deutschland) ermittelt.
Die Figur stellt die Mittelwerte von zwei unabhängigen Versuchen dar.

Oxytocin-Gens = test: Oxytocin mRNA in the hypothalamic paraventricular nucleus by in-situ hybridisation after chronic treatment in vivo; design: species or system Wistar-Ratten; details: ovariectomised rats, 0,01, 0,1 and 1 µg daily s.c. for 7 days; effect of the prototype very similar to 17b-Estradiol
From the text: Geschlechtsreife (drei Monate alt, Gewicht 250±30 g) weibliche Wistar-Ratten (Tierzucht Schönwalde GmbH, Deutschland) wurden unter Ketamin-Narkose ovarektomiert. […] Unmittelbar nach der Tötung der Tiere, wurden die Uterus-Feuchtgewichte (bezogen auf 100 g Körpergewicht) ermittelt. […] Behandlungsbedingte Veränderungen in der Transkription des Oxytocin-Gens wurden durch densitometrische Messungen der spezifischen Hybridisierungssignale innerhalb der definierten anatomischen Stukturen quantifiziert.
as §2

kognitive Leistung = test: Conditioned escape behaviour (retention and extinction) in ovariectomised rats after chronic treatment; format: in vivo, Wistar-Ratten; details: 30 µg daily s.c., retention tested on day 7
From the text: as §1

With `C[C@]12CC[C@@H]3c4ccc(O)cc4CC[C@H]3[C@@H]1CC[C@H]2O` [17a-Estradiol] the “Stärke des Endometriums (endometriale Proliferation)” value (“Stärke des Endometriums” below) (Endometriums) was “nicht beeinflussen”, the “Induktion von Oxytozin-Bindungsstellen im Myometrium” value (Oxytozin-Rezeptoren; ovariectomised rats) was “signifikant geringere Wirkung” and the “Serumkonzentrationen von 17b-Estradiol” value [1] was “meßbare Konzentrationen”.
With `C[C@]12CC[C@@H]3c4ccc(O)cc4CC[C@H]3[C@@H]1CC[C@@H]2O` [17b-Estradiol] the “Stärke des Endometriums” value (Endometriums) was “signifikante endometriale Proliferation”, the “Uterusgewichte (x ± SEM)” value (Uterus [2]) was 187 ± 9 mg/100g KG and the “Serumkonzentrationen von 17b-Estradiol” value [1] was “meßbare Konzentrationen”.
In the case of `C[C@]12CCC3=C(CCc4cc(O)ccc43)[C@@]13C[C@H]3C[C@H]2O` [15βH,3'H-Cycloprop[14,15]-estra-1,3,5(10),8-tetraen-3,17α-diol], the “Expression von bcl-2 im Gyrus dentatus” value (bcl-2) was “dosisabhängigen Stimulation”, the “Stärke des Endometriums” value (Endometriums) was “nicht beeinflussen” and the “Dichte von Oxytozin-Rezeptoren in allen untersuchten Hirnstrukturen” value (Oxytozin-Rezeptoren; VMN and BNST, ovariectomised rats, 50 pM 125I-OVTA) was “signifikanten Anstieg”. The “Dichte von Oxytozin-Rezeptoren im VMN im Vergleich mit 17b-Estradiol” value (Oxytozin-Rezeptoren; VMN) was “schwächeren Effekt als 17b-Estradiol”, the “Induktion von Oxytozin-Bindungsstellen im Myometrium” value (Oxytozin-Rezeptoren; ovariectomised rats) was “signifikant geringere Wirkung” and the “Wirksamkeit im weiblichen Genitaltrakt im Vergleich mit 17a-Estradiol” value (Uterus [3]; comparison in words) was “vergleichbar mit derjenigen von 17a-Estradiol”. The “Wirksamkeit im weiblichen Genitaltrakt, geringer als diese von 17b-Estradiol” value (Uterus [3]; fold lower than 17b-Estradiol, from uterotropic daily doses) was ~1000 -fach, the Uterus-Vergrößerung (Uterus [3]; ovariectomised rats, 0,01, 0,1 and 1 µg daily s.c. for 7 days (Example 3)) was “keiner Uterus-Vergrößerung” and the “Tagesdosen für signifikante Vergrößerung des Uterus (uterotroper Effekt)” value (Uterus [3]; ovariectomised rats, s.c. osmotic minipumps, 7 days, uterus wet weight per 100 g body weight) was 30 µg. The “Effizienz (Transkription des Reporters), geringer als diese von 17b-Estradiol” value [4] was 10 -fach, the “Transkription des Oxytozin-Gens im PVN” value (Oxytocin-Gens) was “dosisabhängig stimuliert” and the “Uterusgewichte (x ± SEM)” value (Uterus [2]) was 108 ± 4 mg/100g KG. The “uterotrope Wirkung im Vergleich mit 17b-Estradiol in einer täglichen Dosis von 1 µg” value (Uterus [2]; prototype 30 µg daily s.c., 14 days) was “signifikant geringer”, the “Serumkonzentrationen von 17b-Estradiol” value [1] was “keinen Anstieg” and the “Retention des erlernten Verhaltensmusters” value (kognitive Leistung) was “estrogen-ähnlichen stimulierenden Effekt”.
